This note sets out measurements from patent US20230048678A1, “ICAN DERIVATIVES FOR ANTIFUNGAL USE” (DEBRECENI EGYETEM, priority 2019, published 2023).

SMILES strings stand for the structures.

What all share (assay type): cell-based
One data set relates to C. albicans SC5314. In words: CLSI broth microdilution susceptibility (Table 1). The conditions noted are these: 48 h, 35° C.; for MICPI: partial (50%) inhibition; for MICTI: total inhibition. As to the method:
(§1) ICAN has 3 key moieties, namely the amino, naphthalene and isonitrile. To find out which ones of them are essential for the antifungal behavior and to design more efficient derivatives, comparative studies were carried out, where one of the moieties was exchanged or eliminated. All ICAN derivatives were tested against C. albicans SC5314, C. krusei ATCC 6258 and C. parapsilosis ATCC 22019. The antifungal agents were dissolved in 100% DMSO and diluted further in RPMI-1640 (with L-glutamine but without bicarbonate) and buffered to pH 7.0 with 0.165 M morpholinopropanesulfonic acid (MOPS). MICs were read visually after 48-h incubation at 35° C. using the partial (50%) inhibition (for ICAN derivatives) (PI) and total inhibition (for AMB and ICAN derivatives) (TI) criteria. MICs were determined at least twice.
(§2) The tested C. albicans, C. tropicalis, C. parapsilosis, C. glabrata and C. krusei ATCC strains and clinical isolates are listed in Table 2. MICs were determined according to the CLSI M27-A3 [22]. Antifungal agents were dissolved in 100% DMSO and diluted further in RPMI-1640 (with L-glutamine but without bicarbonate) (Sigma, Budapest, Hungary), and buffered to pH 7.0 with 0.165 M morpholinopropanesulfonic acid (MOPS; Sigma, Budapest, Hungary). The final concentration ranges used for AMB and ICAN derivatives were 0.125 to 4 μg/ml and 0.04 to 20 μg/ml, respectively. Yeast cell suspensions were prepared in RPMI 1640 medium and were adjusted to give a final inoculum concentration of 0.5×10^3 to 2.5×10^3 cells/ml. MICs were read visually after 48-h incubation at 35° C. using the partial (50%) inhibition (for ICAN derivatives) (PI) and total inhibition (for AMB and ICAN derivatives) (TI) criteria. MICs were determined at least twice. For amphotericin B isolates with MIC values of ≤2 mg/L were considered wild-types. [Pfaller M A, 2012]
(In general: Dilution methods test growth across graded concentrations, often in twofold steps.)

The subject of a further data set is C. krusei ATCC 6258. Kind of data set: CLSI broth microdilution susceptibility (Table 1). The conditions noted are these: 48 h, 35° C.; for MICPI: partial (50%) inhibition; for MICTI: total inhibition. As to the method:
as §1, §2

Data set [1] deals with C. parapsilosis ATCC 22019. In words: CLSI broth microdilution susceptibility (Table 1). The conditions noted are these: 48 h, 35° C.; for MICPI: partial (50%) inhibition; for MICTI: total inhibition. The protocol:
as §1, §2

Data set [2] has as its system C. albicans SC5314, C. krusei ATCC 6258 and C. parapsilosis ATCC 22019. In words: CLSI broth microdilution, MIC summarised over the three Candida test strains. The conditions noted are these: for MICTI: value or range over the three Candida strains of Table 1, total inhibition. As to the method: as §1, §2
A further data set has as its system human cell cultures. Kind of data set: MTT bio assay cytotoxicity. The conditions noted are these: MTT bio assay technique. For orientation: Formazan colour is commonly taken as a measure of viable cells.

As to `[C-]#[N+]c1cccc2c(NCCC)cccc12` [PICAN, N-(prop-1-yl)-1-amino-5-isocyanonaphthalene], the MICPI was determined as 0.6 µg/mL in the data set with C. albicans SC5314, 0.15 µg/mL against C. krusei ATCC 6258 and 0.6 µg/mL in data set [1]. For the same compound, the MICTI against C. albicans SC5314 was 2.5 µg/mL; with C. krusei ATCC 6258 it was 2.5 µg/mL; in data set [1], 1.75 µg/mL; in data set [2], 1.75-2. μg/ml.
With `[C-]#[N+]c1cccc2c([N+]#[C-])cccc12` [DIN, 1,5-diisocyanonaphthalene], the MICPI against C. albicans SC5314 turned out to be 0.3 µg/mL; with C. krusei ATCC 6258 it was 0.3 µg/mL; in data set [1], 0.3 µg/mL; in data set [2] (value or range over the three Candida strains of Table 1, partial (50%) inhibition), 0.3 µg/mL. For the same compound, the MICTI (against C. albicans SC5314; against C. krusei ATCC 6258; in data set [1]; in data set [2]) was 0.6 µg/mL each time.
Consider `[C-]#[N+]c1cccc2c(N)cccc12` [ICAN, 1-amino-5-isocyanonaphthalene], for which the MICPI in the data set on C. albicans SC5314 amounted to 1.25 µg/mL; against C. krusei ATCC 6258 it was 0.6 µg/mL; in data set [1], 0.3 µg/mL. Further, the MICTI in the data set on C. albicans SC5314 was 5 µg/mL; with C. krusei ATCC 6258, 2.5 µg/mL; in data set [1], 0.6 µg/mL; in data set [2], 0.6 to 5 µg/mL. In the data set with human cell cultures, this compound came in with an LD50 of 10 µg/mL.
As to `[C-]#[N+]c1cccc2c(NCC)cccc12` [EICAN, N-ethyl-1-amino-5-isocyanonaphthalene], the MICPI (with C. albicans SC5314; with C. krusei ATCC 6258; in data set [1]) was 0.6 µg/mL in each case. For the same compound, the MICTI in the data set on C. albicans SC5314 was 2.5 µg/mL; in the data set with C. krusei ATCC 6258, 1.25 µg/mL; in data set [1] it was 1.25 µg/mL; in data set [2] it was 1.25 to 2.5 µg/mL.
As for `Nc1cccc2c(N)cccc12` [DAN, 1,5-diaminonaphthalene, reference compound], the MICPI (with C. albicans SC5314; against C. krusei ATCC 6258; in data set [1]) was 50 µg/mL throughout. The MICTI (against C. albicans SC5314; in the data set on C. krusei ATCC 6258; in data set [1]) was 100 µg/mL in each case.
Turning to `[C-]#[N+]c1ccc([N+]#[C-])cc1` [PDI, 1,4-phenylenediisocyanide, reference compound], the MICPI (against C. albicans SC5314; against C. krusei ATCC 6258; in data set [1]) was 50 µg/mL in each case. Also, the MICTI (against C. albicans SC5314; with C. krusei ATCC 6258; in data set [1]) was 100 µg/mL in each case.
